Experiments:
[1] = Cytotoxicity NIH3T3 (MTS reduction); format: cell-based; conditions: mouse, NIH3T3 cells, 1 hour exposure in the absence of serum, N = 3, read-out: Cytotox NIH3T3 EC50
[2] = Cytotoxicity HepG2 (MTS reduction); format: cell-based; conditions: human, HepG2 cells; read-out: Cytotox HepG2 EC50
[3] = molecular target: T1, ultra large complexes (ULC) between PF4 tetramers and heparin (Homo sapiens, UniProt P02776); assay: Inhibition of formation of ultra large complexes (ULC) of PF4 tetramers and heparin; format: biochemical; conditions: IC50 values are +/−20%
T1 construct: platelet factor 4 which is a 70 amino acid, lysine-rich, 7.8 kDa platelet-specific protein
T1 sequence (P02776 32-101): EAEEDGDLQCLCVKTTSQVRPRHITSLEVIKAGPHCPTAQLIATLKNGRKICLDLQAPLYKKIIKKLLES
Experimental: Since ULCs are formed as part of a dynamic equilibrium between heparin and PF4, dynamic light scattering (DLS) was performed to measure the ability of the exemplified compounds to disrupt preformed ULCs. Samples were analyzed and included PF4 incubated in the absence or presence of unfractionated heparin (UFH) for 20 min at room temperature at PF4 to heparin ratios (PHR) of 1:0 (no heparin), 2:1, and 0.64:1. The samples were then analyzed using photon correlation spectroscopy on a DynaPro® DLS instrument and Dynamics® software (V6.7.6; […]) to obtain correlation function. The results of the DLS analysis indicate the percentage of ULCs and small PF4 particles. Data for the small particles (a population of particles with a mean hydrodynamic diameter of about 1 nm) and data for the large particles (a population of particles with a mean hydrodynamic diameter of about 300 nm) is assessed. Data are expressed as the percent of total intensity from each measurement, the mean of 10 measurements, and representative of two such experiments.
ELISA measurement and gel filtration measurement of ULC inhibition were performed as described in International Patent Publication No. WO2013/142328, which is incorporated herein by reference. Similarly, assays in which heparin concentrations are varied to determine the effect on ULC inhibition were performed as described in that publication.
Certain compounds were evaluated for their ability to inhibit formation of ultra large complexes (ULC) between PF4 tetramers and heparin.

[4] = molecular target: T2, human PF4 (Homo sapiens, UniProt P02776); assay: Inhibition of PF4 tetramer formation (BS3 cross-linking, SDS-PAGE); format: biochemical; conditions: for IC50: read-out: IC50 of PF4 tetramer formation inhibition
T2 construct: PF4 is a 70 amino acid, lysine-rich 7.8 kDa platelet-specific protein; made in house; host or cells: Escherichia coli BL21DE3 pLysS (pT7-7) and/or Drosophila S2 cells
T2 sequence (P02776 32-101): T1 sequence (P02776 32-101)
Procedure, shortened: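 Monomer, dimer, trimer and tetramer fractions were quantified by densitometry after reducing 12% SDS-PAGE of BS3-cross-linked (0.2 mM, 30 min, room temperature) PF4. Before cross-linking, 10 μg/ml E. coli-expressed human WT PF4 in PBS was exposed to compound for 15 min at 37° C or 60 min at room temperature; controls lacked compound.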

[5] = Human microsome stability; format: in vitro ADME; conditions: Human microsomes, compound conc = 0.5 μM, n = 1; read-out: Human microsome stability Half life t1/2
From the text: (§1) Certain exemplified compounds were examined for ADMET (absorption, distribution, metabolism, excretion and toxicity) profiling using conventional assays with the results shown in the Tables 3A-3C below.

[6] = Mouse microsome stability; format: in vitro ADME; conditions: Mouse microsomes, compound conc = 0.5 μM, n = 1; read-out: Mouse microsome stability Half life t1/2
From the text: as §1

[7] = system: human platelets; assay: PF4-KKO induced platelet activation, P-selectin, human platelets; format: cell-based

Compound | EC50 at 1 h [1] [µg/mL] | EC50 [2] [µg/mL] | IC50 [3] [µM] | IC50 [4] [µM] | half-life at 0.5 μM [5] [min] | half-life at 0.5 μM [6] [min] | inhibition at 100 µM ([4]; 100 μM inhibitor, read-out: % inhibition of PF4 tetramer formation at single concentration of inhibitor) [%] | PF4-KKO induced platelet activation using P-selectin as a marker ([7]; human platelet activation assays, 20 μM and 40 μM (FIGS. 8 and 9)) | preventing PF4-KKO induced platelet activation using P-selectin as a marker ([7]; human platelets (FIG. 12)) | inhibition at 30 µM ([4]; 30 μM inhibitor, read-out: % inhibition of PF4 tetramer formation at single concentration of inhibitor) [%]
CC(=O)C1(C(=O)OC(C)(C)C)C(=O)c2ccc(Oc3ccc4c(c3)C(=O)C(C(C)=O)(C(=O)OC(C)(C)C)C4=O)cc2C1=O (centres unmarked) [Example 5, 5-(2-acetyl-2-carbo-t-butoxy-2,3-dihydro-1,3dioxo-1h-inden-6-yloxy)-2-acetyl-2-carbo-t-butoxy-2,3-dihydro-1,3-dioxo-1h-indene] | > 3350 | > 3350 | 10 | 10.4 |  |  |  |  |  | 
O=C(c1ccc2c(c1)C(=O)CC2=O)c1ccc2c(c1)C(=O)CC2=O [Example 4, 5,5′-carbonylbis(1h-indene-1,3(2h)-dione)] | > 250 | > 250 | 3 | 4 | 4.7 | 1.7 | 96 |  |  | 
CCCNC(=O)C1C(=O)c2ccc(C(=O)c3ccc4c(c3)C(=O)C(C(=O)NCCC)C4=O)cc2C1=O (centres unmarked) [Example 15, 5,5′-carbonylbis(1,3-dioxo-indan-2-carboxylic acid propylamide)] | > 1000 | > 1000 | 11 | 3 | 116 | 93.8 |  | inhibitory | efficacy | 93

Reference: US20250281424A1 (New York Blood Center, Inc, priority 2020, published 2025)
